Measurements from publication PMC10783051 (Microbiology Spectrum, 2023).
Entries after “also recorded” stand apart in the source; their conditions may differ.

Key:
Streptomyces [1] = settings: cited from earlier work
From the text: Therefore, we hypothesized that Sv may catabolize those exogenous CLPs and use them as nutritional sources. […] (Fig. 2E and F). Extraction of the me ...

[2] = Sv cell-free supernatant (CFS); settings: Streptomyces venezuelae ATCC 10712, 30°C, up to 24 h; time course up to 48 h
[3] = rhizosphere extracts (agar near tomato roots co-inoculated with Bv and Sv, Hoagland solid medium); settings: Streptomyces venezuelae ATCC 10712 / Bacillus velezensis GA1-GFP on tomato (Solanum lycopersicum var. Moneymaker), 22°C, up to 7 days
[4] = confrontation zone between B. velezensis GA1 and S. venezuelae ATCC 10712 on REM solid medium (agar extract); settings: Streptomyces venezuelae ATCC 10712 / Bacillus velezensis GA1, 26°C, up to 3 days
[5] = Sv cultures grown on gelified GA1 ΔbaeJ-mlnA-dfnA CFS; settings: Streptomyces venezuelae, 28°C, up to 3 days
Streptomyces [6] = settings: cited from earlier work
[7] = system: S. venezuelae supernatant (secreted enzymes); assay: In vitro degradation of CLPs by S. venezuelae cell-free supernatant; assay type: in vitro ADME, Streptomyces venezuelae ATCC 10712; settings: shaking 180 rpm; for degradation of Pseudomonas CLPs by Sv CFS: Pseudomonas CFS (CAA medium) supplemented with 4% (vol/vol) Sv CFS, 24 h at 30°C, UPLC-MS and MS/MS, degraded to different degrees
Description: S. venezuelae cultures were performed on ISP2 medium at 28°C (yeast extract 4 g/L, malt extract 10 g/L, glucose 4 g/L, agar 20 g/L; pH 7.3). On 12 × 12 cm Petri square plates, three stripes (1 × 12 cm) of spores were inoculated with a cotton swab [40 µL of spores suspension (10^7 spores/mL) each], spaced by 3 cm each. The plates were left for 7 days of incubation. Next, the agar media was recovered and placed in Falcon tubes at −20°C for 24 h. Then, the agar media were defrosted at room temperature and centrifuged (8,000 rpm for 20 min). Finally, the supernatant leaked from the agar was collected, filtered sterilized (0.22-µm pore size filters) and stored at −20°C until further use. The heat-treated Sv supernatant was generated by incubating an aliquot of the cell-free supernatant of Sv for 10 min at 98°C. The supernatant was then filtered (0.22-µm pore size filters) and stored at −20°C until further use.
[…] Then the solutions were incubated for 24 h at 30°C with continuous shaking (180 rpm). Next, the solution were centrifuged (1 min at 10,000 rpm), filtered (0.22-µm pore size filters), and analyzed by UPLC-MS.
The degradation assays of Pseudomonas CLPs were performed using CFS generated as described above. They were supplemented by 4% (vol/vol) of S. venezuelae CFS prepared as described previously. Next, the solutions were incubated for 24 h at 30°C with continuous shaking (180 rpm). Then, the solution were centrifuged (1 min at 10,000 rpm), filtered (0.22-µm pore size filters), and analyzed by UPLC-MS.
For the CLP degradation kinetic experiments, surfactin, iturin, and fengycin solutions supplemented with S. venezuelae supernatant were prepared following the same protocol. Twenty microliters of solution was sampled at each time point and directly mixed with 80 µL of acetonitrile to stop enzymatic degradation. Finally, they were stored at −20°C until analysis by UPLC-MS.
All UPLC-MS analyses were performed using an Agilent 1290 Infinity II coupled with a diode array detector and a mass detector (Jet Stream ESI-Q-TOF 6530) in positive mode with the parameters set up as follows: capillary voltage of 3.5 kV, nebulizer pressure of 35 lb/in^2, drying gas of 8 L/min, drying gas temperature of 300°C, flow rate of sheath gas of 11 L/min, sheath gas temperature of 350°C, fragmentor voltage of 175 V, skimmer voltage of 65 V, and octopole radiofrequency of 750 V. Accurate mass spectra were recorded in the m/z range of 300–1,700. For untargeted MS/MS, we used the same MS1 parameters as described. We added MS2 untargeted acquisition mode with the parameters as follows: MS/MS range 50–1,700 m/z; MS/MS scan rate 3 spectra/s; isolation width MS/MS medium (approx. 4 AMU), Decision Engine Native; fixed collision energies of 25 and 40 V for surfactin, 50 V for iturin, and 60 V for fengycin experiments; precursor selection: three for the surfactin experiment, four for the iturin and fengycin experiments, threshold 1,500 (Abs), isotope model common, active exclusion after two spectra and release after 0.5 min, sorting the precursors by charge state then abundance (charge state preference 1). For targeted MS/MS, we used the same MS1 parameters MS/MS range of 50–1,700 m/z or 50–3,200 (when required for Pseudomonas CLPs with mass >1,700 Da), MS/MS scan rate 3 spectra/s, isolation width MS/MS narrow (approx. 1.3 amu), and fixed collision energies 20, 40, and 60V. In all experiments, a C18 Acquity UPLC ethylene bridged hybrid column (2.1 mm × 50 mm × 1.7 µm; Waters Corporation, Milford, MA, USA) was used at a flow rate of 0.6 mL/min and a temperature of 40°C. The injection volume was 20 µL, and the diode array detector scanned a wavelength spectrum between 190 and 600 nm. Unless otherwise mentioned, a gradient of acidified water (0.1% formic acid) (solvent A) and of acidified acetonitrile (0.1% formic acid) (solvent B) was used as mobile phase with a constant flow rate of 0.6 mL/min, starting at 10% B and rising to 100% B in 20 min. […]

[8] = system: Streptomyces venezuelae ATCC 10712; assay: Confrontation assay B. velezensis GA1 / S. venezuelae on REM plate, UPLC-MS metabolite profiling of the agar; settings: gelified REM, 3 days at 26°C
Description: Confrontation assays were performed on square Petri dishes (12 × 12 cm) with 40 mL of REM solid medium at 26°C (REM supplemented with 14 g/L of agar).
S. venezuelae ATCC 10712 was inoculated as stripes (1 × 12 cm) in the middle of the plate with 40 µL of spore suspension (10^7 spores/mL) and spread with a cotton swab. Next, B. velezensis GA1 cells were collected from fresh precultures as described and adjusted to OD600 nm 0.1. Then, 5 µL of B. velezensis GA1 suspension was spotted at 1 cm of the Streptomyces line. Control plates were done following the same procedure without the inoculation of either Bacillus or Streptomyces. Plates were then incubated for 3 days at 26°C in the dark. Pictures of the plates were then captured using a CoolPix camera (NIKKOR ×60 wide optical zoom extra-low dispersion vibration reduction 4.3–258.0 mm 1:33 to 6.5).
The extraction of the metabolites from the agar was performed as follows. For the confrontation experiment, we precisely sampled the area of agar (2 × 1 cm) near the colony of Bacillus or Streptomyces (the confrontation zone is 1 cm wide) with standardized plugs. For the in planta, we sampled the agar area (1 × 1 cm) near the tomato roots. In both cases, the agar samples were transferred to Eppendorf tubes and placed for 24 h at −20°C. Then, the agar was thawed at room temperature and centrifuged for 10 min at 13,000 rpm. The supernatants were then collected and filtered (0.22-µm pore size filters) before UPLC-MS analysis.
All UPLC-MS analyses were performed using an Agilent 1290 Infinity II coupled with a diode array detector and a mass detector (Jet Stream ESI-Q-TOF 6530) in positive mode with the parameters set up as follows: capillary voltage of 3.5 kV, nebulizer pressure of 35 lb/in^2, drying gas of 8 L/min, drying gas temperature of 300°C, flow rate of sheath gas of 11 L/min, sheath gas temperature of 350°C, fragmentor voltage of 175 V, skimmer voltage of 65 V, and octopole radiofrequency of 750 V. Accurate mass spectra were recorded in the m/z range of 300–1,700. For untargeted MS/MS, we used the same MS1 parameters as described. We added MS2 untargeted acquisition mode with the parameters as follows: MS/MS range 50–1,700 m/z; MS/MS scan rate 3 spectra/s; isolation width MS/MS medium (approx. 4 AMU), Decision Engine Native; fixed collision energies of 25 and 40 V for surfactin, 50 V for iturin, and 60 V for fengycin experiments; precursor selection: three for the surfactin experiment, four for the iturin and fengycin experiments, threshold 1,500 (Abs), isotope model common, active exclusion after two spectra and release after 0.5 min, sorting the precursors by charge state then abundance (charge state preference 1). For targeted MS/MS, we used the same MS1 parameters MS/MS range of 50–1,700 m/z or 50–3,200 (when required for Pseudomonas CLPs with mass >1,700 Da), MS/MS scan rate 3 spectra/s, isolation width MS/MS narrow (approx. 1.3 amu), and fixed collision energies 20, 40, and 60V. In all experiments, a C18 Acquity UPLC ethylene bridged hybrid column (2.1 mm × 50 mm × 1.7 µm; Waters Corporation, Milford, MA, USA) was used at a flow rate of 0.6 mL/min and a temperature of 40°C. The injection volume was 20 µL, and the diode array detector scanned a wavelength spectrum between 190 and 600 nm. Unless otherwise mentioned, a gradient of acidified water (0.1% formic acid) (solvent A) and of acidified acetonitrile (0.1% formic acid) (solvent B) was used as mobile phase with a constant flow rate of 0.6 mL/min, starting at 10% B and rising to 100% B in 20 min. Solvent B was kept at 100% for 4 min before going back to the initial ratio. MassHunter Workstation (version 10.0) and ChemStation software were used for data collection and analysis. For untargeted analysis of iturin and fengycin degradation products, we used the same solvent and flow rate, starting at 10% B to 20% in 2 min, then rising to 50% B at 14 min and 100% B at 25 min, followed by 100% B and 5 at 10% B at 6 min.

For `C/C(=C/C=C/C=C/C(C)C(=O)O)NC(=O)CC(O)\C(C)=C/C=C\C=C(C)\C=C\C=C/C=C/CNC(=O)C(O)CC(C)C` (centres unmarked) [bacillaene], the “toxicity toward Streptomyces” value (Streptomyces [1]) is listed as “toxicity”.
With Fa Glu Leu Leu Val Asp Leu Leu the cleaved bond [2] was “Fa-E and E-L and L-L and L-V”, the fragment found [2] was “Linear surfactin, first_seen and FaEL” and the fragment found [3] was “linear surfactins; also recorded: ELLVDLL”. For the same molecule, the cleaved bond [4] was “Fa-E”, the fragment found [4] was “Linear surfactin” and the fragment found [5] was “Linear surfactin; also recorded: ELLVDLL; also recorded: LLVDLL”. The fragment found (Streptomyces [6]) was “linear surfactin”.
For “VSLVVQLVDhbTIHseDabK (lariat or depsi) [sessilin, Pseudomonas cyclic lipopeptide, tested in Pseudomonas cell-free supernatant]”, the “degradation of Pseudomonas CLPs by Sv CFS” value [7] was “degraded”.
For difficidin, the “toxicity toward Streptomyces” value (Streptomyces [1]) is listed as “toxicity”.
In the case of fengycin, the “degradation of pure Bacillus CLPs by Sv CFS” value ([7]; pure CLPs (100 µM) incubated 24 h at 30°C with 4% (vol/vol) Sv CFS (grown on ISP2, 0.22-µm filtered), UPLC-MS/MS with feature-based molecular networking) is reported as “degrades”, the “shorter CLP fragment detected in the confrontation zone but not in Bv monoculture” value ([8]; UPLC-MS, MS/MS) is reported as “loss of the terminal isoleucine” and the “abundance of the CLP in the confrontation zone compared with monocultures” value ([8]; agar extract of confrontation zone, UPLC-Q-TOF-MS peak areas, three biological replicates) is reported as “decrease in the abundance”.
In the case of macrolactin, the “toxicity toward Streptomyces” value (Streptomyces [1]) is given as “toxicity”.
In the case of orfamide, the “degradation of Pseudomonas CLPs by Sv CFS” value [7] is reported as “degraded”.
In the case of putisolvin, the “degradation of Pseudomonas CLPs by Sv CFS” value [7] is reported as “degraded”.
With xantholisin the “degradation of Pseudomonas CLPs by Sv CFS” value [7] was “degraded”.
